Records with an inconclusive call do not appear. Active and inactive are the calls of the source.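 The calls were made as follows: active = signal-lowering compounds whose fitted half-maximal concentration is at most ten times their highest tested dose; inconclusive = flat fit between -30 and -70%, or poor fit; inactive = flat within 30%, signal rising, or potency beyond limit.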
These molecules were tested against POS-1 (Caenorhabditis elegans) binding to mex-3 RNA (assay: inhibitors of POS-1/mex-3 RNA binding, dose response, counter-screen for MEX-5 RNA-binding inhibitor project, biochemical, fluorescence polarization, cherry-picked samples, set 2 (AID 493130;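 also: POS-1 as maltose binding protein fusion made in E. coli with FITC RNA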)). Settings: POS-1/mex-3 RNA fluorescence polarization, 1 h.

| Structure (SMILES) | AC50 |
| --- | --- |
| C=CCn1c(=O)[nH]c2nc3cc(N=CN(C)C)c(C)cc3nc2c1=O | 7.27 µM |
| Cc1[nH][nH]c(=O)c1C(c1ccc(O)c([N+](=O)[O-])c1)c1c(C)[nH][nH]c1=O | 7.84 µM |
| O=C(N/N=C/c1c(O)n(Cc2ccccc2)c(=O)[nH]c1=O)c1ccccc1O | 4.84 µM |
| Cc1cc(=O)oc(C)c1C(=O)Nc1ccc2ncccc2c1 | 8.33 µM |
| CC1=C(C#N)C(=O)N(C2CCS(=O)(=O)C2)C(=O)/C1=C\c1ccco1 (configuration not stated) | 3.66 µM |
| Cc1ccc(C)n1-c1sccc1C(=O)O | 6.08 µM |
| O=c1[nH]n2c(=O)c3c([nH]c2c1N=Nc1ccccc1)CCC3 | 0.677 µM |
| NS(=O)(=O)c1ccc(N=Nc2c(=O)[nH]n3c(=O)c4c([nH]c23)CCCC4)cc1 | 0.251 µM |
| Cc1ccc(-c2cc(C(=O)Nc3ccc(S(=O)(=O)Nc4ncccn4)cc3)[nH]n2)c(O)c1C | 5.29 µM |
| Cc1ccc(C)n1-c1ccccc1N | 5.78 µM |
| CC(=O)Nc1cccc(C2=CC(c3ccco3)n3ncnc3N2)c1 (configuration not stated) | 5.81 µM |
| Nc1ccc2nc3c(=O)n(CCc4ccccc4)c(=O)[nH]c3nc2c1 | 1.22 µM |
| CCC(=O)Oc1ccc2c(c1)O/C(=C\c1ccco1)C2=O | 5.63 µM |
| O=C(O)c1ccc(Cl)c2c1C1C=CCC1C(c1ccccn1)N2 (configuration not stated) | 8.69 µM |
| O=C1N=c2ccccc2=C1c1sc(=S)n(NC(=O)c2ccccc2)c1O | 8.56 µM |

Same assay, conditions: POS-1/mex-3 RNA fluorescence polarization, 1 h; at 10 µM (top of the series)

| Structure (SMILES) | activity change, negative = inhibition |
| --- | --- |
| Cc1nn(C(C)C(=O)NNC(=S)Nc2ccc(Cl)cc2)c(C)c1[N+](=O)[O-] (configuration not stated) | inactive |
| O=C1N=C(N2C=CC(=C3C=CNC=C3)C=C2)/C(=C/N=NC(=O)c2ccccc2)S1 | inactive |
| CC1(C)CC(=O)C2=C(C1)OC(N)=C(C#N)C2c1ccccc1[N+](=O)[O-] (configuration not stated) | inactive |
| CCc1nnc(NS(=O)(=O)c2ccc(N=Cc3c(O)n(-c4ccc(Cl)cc4)c(=O)[nH]c3=O)cc2)s1 | inactive |
| Oc1ccc(Br)cc1C=Nc1cccn2cc(-c3ccccc3)nc12 | inactive |
| O=C(NNC(=O)c1ccccc1[N+](=O)[O-])c1ccco1 | inactive |
| Cc1ccc(N/N=C(\C#N)C(=O)c2ccsc2)cc1 | inactive |
| CCCC(=O)Nc1ccc(NC(=O)c2cccs2)cn1 | inactive |
| Nc1nc(-c2ccc(Cl)cc2)nnc1-c1ccc(Br)cc1 | inactive |
| Cc1ccc(C)c(NC(=O)CCC(=O)NNC(=S)Nc2ccccc2)c1 | inactive |
| O=c1[nH]cnc2c1C(c1ccccc1[N+](=O)[O-])c1c(nc[nH]c1=O)O2 | inactive |
| COc1ccc(/C=N/Nc2nc(=O)[nH]nc2C)cc1[N+](=O)[O-] | inactive |
| CCCCCC(=O)N(Cc1ccccc1)c1c(N)n(CCOC)c(=O)[nH]c1=O | inactive |
| CCn1c(C)nc2c1C(=O)c1ccccc1C2=O | inactive |
| COc1ccc2cc3c(N)c(C(=O)NCc4ccco4)sc3nc2c1 | inactive |
| C=CCn1c(O)c(N=NC(=O)CNC(=O)/C=C/c2ccco2)c2ccccc21 | inactive |

| Structure (SMILES) | activity change, negative = inhibition |
| --- | --- |
| Cc1ccc(-c2nc(C=Nc3ccccc3)c(O)o2)cc1 | inactive |
| O=C(NC(=S)NNS(=O)(=O)c1ccccc1)c1ccc([N+](=O)[O-])cc1 | inactive |
| COc1ccccc1/C=C1\SC(=S)N(CCC(=O)Nc2cc(C)on2)C1=O | inactive |
| CCN(Cc1ccccc1)c1ccc(/C=C(\C#N)c2ccccn2)cc1 | inactive |
| CC1CN2C(c3ccc(Cl)cc3)=CSC2=N1 (configuration not stated) | inactive |
| O=C(O)c1cccc(NC(=S)N/N=C/c2c[nH]c3ccccc23)c1 | inactive |
| COC(=O)C1CSc2[nH]c(=O)sc2C1c1ccc(O)c(OC)c1 (configuration not stated) | inactive |
| CN(C)c1ccc(/C=C/c2nc3ccccc3c(=O)[nH]2)cc1 | inactive |
| O=S1(=O)c2ccccc2N=NN1Cc1ccc(Cl)c(Cl)c1 | inactive |
| CN1CN(C)c2ccc([N+](=O)[O-])c3cccc1c23 | inactive |
| CS(=O)(=O)Nc1ccc(-c2ccc(/C=C3\SC(N)=NC3=O)o2)cc1 | inactive |
| Oc1cccc(NC(=S)N=Nc2c(O)[nH]c3ccc(Br)cc23)c1 | inactive |
| O=c1c(OC2OC(CO)C(O)C(O)C2O)c(-c2ccc(O)c(O)c2)oc2cc(O)cc(O)c12 (configuration not stated) | inactive |
| Cc1csc(NC(=O)c2ccc(-c3ccc(Cl)cc3Cl)o2)n1 | inactive |
| Cc1ccc(S(=O)(=O)c2cc3c(=O)n4ccccc4nc3n(C3CCCCC3)c2=N)cc1 | inactive |
| COc1cccc(NC2=C(NCCO)C(=O)c3ccccc3C2=O)c1 | inactive |

— PubChem BioAssay AID493130 (Broad Institute, 2011)
